Experiments:
Assay type in all cases: biochemical
BAM3 = target: T1, BAM3 (Arabidopsis thaliana, UniProt O23553); experiment: GC-MS maltose assay, Lineweaver-Burk and non-linear regression; conditions: substrate maltohexaose 2.5-25 mM; mixed inhibition; 50 mM sodium acetate, 5 mM DTT, 5 mM EDTA, pH 6.0, 25°C
T1 sequence (O23553 50-548): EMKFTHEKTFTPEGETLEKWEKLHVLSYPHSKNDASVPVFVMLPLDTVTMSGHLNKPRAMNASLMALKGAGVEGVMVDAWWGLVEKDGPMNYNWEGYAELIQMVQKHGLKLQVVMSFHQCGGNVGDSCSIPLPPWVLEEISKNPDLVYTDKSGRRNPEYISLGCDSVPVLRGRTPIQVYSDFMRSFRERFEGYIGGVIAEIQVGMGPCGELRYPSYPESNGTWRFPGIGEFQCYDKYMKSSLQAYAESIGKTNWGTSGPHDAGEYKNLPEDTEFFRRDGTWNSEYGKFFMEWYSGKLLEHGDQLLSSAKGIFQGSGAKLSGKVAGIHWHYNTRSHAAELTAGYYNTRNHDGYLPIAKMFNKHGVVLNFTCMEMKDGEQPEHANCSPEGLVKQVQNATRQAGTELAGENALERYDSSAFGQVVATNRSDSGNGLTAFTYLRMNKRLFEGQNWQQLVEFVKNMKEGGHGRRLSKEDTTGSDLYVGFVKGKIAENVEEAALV

barley BAM = target: T2, barley BAM (Hordeum vulgare, UniProt P16098); experiment: Betamyl colorimetric assay, p-nitrophenol release; conditions: 2.5 mM substrate, 0.1 M maleic acid pH 6.2, 40°C; enzyme pre-treated with 20 mM DTT
T2 construct: gene BMY1; commercial barley seed beta-amylase (Sigma A7130), native preparation, lyophilised powder

BAM1 = target: T3, BAM1 (Arabidopsis thaliana, UniProt Q9LIR6); experiment: Betamyl colorimetric assay, p-nitrophenol release; conditions: 2.5 mM substrate, 0.1 M maleic acid pH 6.2, 40°C; enzyme pre-treated with 20 mM DTT
T3 sequence (Q9LIR6 42-575): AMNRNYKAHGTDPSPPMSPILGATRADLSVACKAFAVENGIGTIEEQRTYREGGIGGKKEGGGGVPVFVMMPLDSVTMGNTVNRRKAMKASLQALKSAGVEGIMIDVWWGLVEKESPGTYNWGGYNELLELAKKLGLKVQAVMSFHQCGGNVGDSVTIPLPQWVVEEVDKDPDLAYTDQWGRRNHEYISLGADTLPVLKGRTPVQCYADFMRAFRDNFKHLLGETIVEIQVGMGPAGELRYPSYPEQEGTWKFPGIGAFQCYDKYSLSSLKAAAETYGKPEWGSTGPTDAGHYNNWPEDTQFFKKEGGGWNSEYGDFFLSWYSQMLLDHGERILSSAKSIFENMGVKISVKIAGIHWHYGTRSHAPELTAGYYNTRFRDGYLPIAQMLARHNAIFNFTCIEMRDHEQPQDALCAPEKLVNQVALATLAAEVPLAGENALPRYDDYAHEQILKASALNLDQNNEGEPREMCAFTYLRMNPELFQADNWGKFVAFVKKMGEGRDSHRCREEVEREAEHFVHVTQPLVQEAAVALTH

T2 sequence (P16098 whole entry): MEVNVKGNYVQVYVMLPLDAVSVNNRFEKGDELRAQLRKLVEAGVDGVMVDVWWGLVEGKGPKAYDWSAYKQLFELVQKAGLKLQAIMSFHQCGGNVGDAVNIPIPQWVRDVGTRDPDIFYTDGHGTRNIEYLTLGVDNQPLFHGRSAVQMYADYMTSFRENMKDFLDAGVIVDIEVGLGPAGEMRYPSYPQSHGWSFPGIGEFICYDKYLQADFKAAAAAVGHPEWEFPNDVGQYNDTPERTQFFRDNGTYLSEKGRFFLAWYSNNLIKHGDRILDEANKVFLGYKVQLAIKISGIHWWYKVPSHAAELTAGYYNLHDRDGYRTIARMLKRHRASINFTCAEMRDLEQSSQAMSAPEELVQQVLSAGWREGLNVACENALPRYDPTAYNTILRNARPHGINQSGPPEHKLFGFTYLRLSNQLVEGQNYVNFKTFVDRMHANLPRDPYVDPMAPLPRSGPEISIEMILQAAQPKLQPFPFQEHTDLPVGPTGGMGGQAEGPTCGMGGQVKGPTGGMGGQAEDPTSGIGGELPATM

Row | Ki (BAM3) | SMILES | Betamyl colorimetric assay, p-nitrophenol release (barley BAM) | Betamyl colorimetric assay, p-nitrophenol release (BAM1)
1 | 7.5 mM | OC[C@H]1O[C@H](O[C@H]2[C@H](O)[C@@H](O)[C@@H](O[C@H]3[C@H](O)[C@@H](O)C(O)O[C@@H]3CO)O[C@@H]2CO)[C@H](O)[C@@H](O)[C@@H]1O (stereo partly drawn) [G3, maltotriose] | – | –
2 | – | O=[N+]([O-])c1ccc(O[C@H]2O[C@H](CO)[C@@H](O[C@H]3O[C@H](CO)[C@@H](O[C@H]4O[C@H](CO)[C@@H](O[C@H]5O[C@H](CO)[C@@H](O[C@H]6O[C@H](CO)[C@@H](O)[C@H](O)[C@H]6O)[C@H](O)[C@H]5O)[C@H](O)[C@H]4O)[C@H](O)[C@H]3O)[C@H](O)[C@H]2O)cc1 [PNPG5, p-nitrophenyl maltopentaoside] | we assayed recombinant BAM1 and commercially-purchased barley seed β-amylase, under the same conditions | we assayed recombinant BAM1 and commercially-purchased barley seed β-amylase, under the same conditions
